Target: T1, PI3Kα kinase (Homo sapiens, UniProt P42336)
T1 construct: purchased Invitrogen PV4788
Assay: PI3Ka Transcreener ADP assay (fluorescence polarization)
Type: biochemical
Conditions: 10 μM ATP, 30 μmol/L lipid substrate; read-out: IC50, inhibition of PI3Kα kinase
Procedure: Fluorescence polarization was used in this assay. The final conditions for kinase assay are 10 μM of ATP, 0.2 ng/μL of PI3Kα kinase, 30 μmol/L of lipid substrate and assay buffer (50 mmol/L of HEPES (pH 7.5), 100 mmol/L of NaCl, 1 mmol/L of EGTA, 3 mmol/L of MgCl2, 1 mmol/L of DTT and 0.03% CHAPS and 2% DMSO).
5 μL of test compounds in 10% DMSO and 10 μL of 0.5 ng/μL PI3K kinase (Invitrogen, PV4788) in assay buffer are put into a 96-well plate (Greiner, Cat. 675076), and then the reaction is started by the addition of 10 μL of 75 μmol/L PIP2, (PS Lipid Substrate Invitrogen, PV5100), and 25 μmol/L ATP mixture. After the mixture is incubated for 60 minutes at room temperature, 25 μL of transcreener Kinase Kit reagent—ADP Detection Mix—(Bellbrook Labs) is added, and the reaction is continued for an additional 1.5 hours. At the end, the plate is read in a Tecan Infinite F500 at excitation of 610 nm and emission of 670 nm.
A standard curve for ADP is obtained in a parallel way by replacing compound and PI3Kα kinase with DMSO and assay buffer, respectively. Different concentration of ADP, 0-10 μM, and ATP, 10-0 μM (ATP+ADP equal to 10 μM) are applied instead of a fixed concentration of ATP in this standard curve assay. Other conditions are the same as described above. The standard curve is plotted using Origin 8.0 software. The inhibition of test compound on ADP production is calculated based on ADP concentration from standard curve. IC50 is obtained using XLfit 2.0 software.

T1 sequence (P42336 whole entry): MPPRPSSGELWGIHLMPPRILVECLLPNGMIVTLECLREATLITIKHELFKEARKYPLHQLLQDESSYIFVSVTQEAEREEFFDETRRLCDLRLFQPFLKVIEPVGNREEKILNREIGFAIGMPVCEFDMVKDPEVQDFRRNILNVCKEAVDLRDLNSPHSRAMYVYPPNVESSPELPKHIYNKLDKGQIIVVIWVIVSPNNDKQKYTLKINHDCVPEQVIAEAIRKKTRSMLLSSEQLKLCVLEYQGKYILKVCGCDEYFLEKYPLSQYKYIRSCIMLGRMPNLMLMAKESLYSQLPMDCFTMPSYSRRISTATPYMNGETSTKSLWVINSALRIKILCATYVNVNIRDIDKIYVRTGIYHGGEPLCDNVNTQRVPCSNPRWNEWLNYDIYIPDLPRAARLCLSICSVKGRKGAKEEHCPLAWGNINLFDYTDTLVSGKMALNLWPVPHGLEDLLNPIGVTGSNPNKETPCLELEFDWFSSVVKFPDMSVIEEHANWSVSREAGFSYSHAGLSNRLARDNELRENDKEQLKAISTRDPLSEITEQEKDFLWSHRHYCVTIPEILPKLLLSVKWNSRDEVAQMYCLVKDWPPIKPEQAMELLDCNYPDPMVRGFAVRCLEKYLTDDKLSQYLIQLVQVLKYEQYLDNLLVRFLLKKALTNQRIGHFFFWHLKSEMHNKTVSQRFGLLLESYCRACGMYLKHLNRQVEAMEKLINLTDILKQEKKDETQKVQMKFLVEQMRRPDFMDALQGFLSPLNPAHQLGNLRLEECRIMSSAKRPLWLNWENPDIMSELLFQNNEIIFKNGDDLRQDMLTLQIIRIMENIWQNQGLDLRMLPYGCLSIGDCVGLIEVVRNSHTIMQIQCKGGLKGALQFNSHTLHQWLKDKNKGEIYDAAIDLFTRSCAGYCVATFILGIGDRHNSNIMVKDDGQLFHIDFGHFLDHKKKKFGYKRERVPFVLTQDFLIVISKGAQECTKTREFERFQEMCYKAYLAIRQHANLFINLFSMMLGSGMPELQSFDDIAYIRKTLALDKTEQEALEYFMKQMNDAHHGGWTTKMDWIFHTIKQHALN
T1 sequence (P27986 whole entry partner): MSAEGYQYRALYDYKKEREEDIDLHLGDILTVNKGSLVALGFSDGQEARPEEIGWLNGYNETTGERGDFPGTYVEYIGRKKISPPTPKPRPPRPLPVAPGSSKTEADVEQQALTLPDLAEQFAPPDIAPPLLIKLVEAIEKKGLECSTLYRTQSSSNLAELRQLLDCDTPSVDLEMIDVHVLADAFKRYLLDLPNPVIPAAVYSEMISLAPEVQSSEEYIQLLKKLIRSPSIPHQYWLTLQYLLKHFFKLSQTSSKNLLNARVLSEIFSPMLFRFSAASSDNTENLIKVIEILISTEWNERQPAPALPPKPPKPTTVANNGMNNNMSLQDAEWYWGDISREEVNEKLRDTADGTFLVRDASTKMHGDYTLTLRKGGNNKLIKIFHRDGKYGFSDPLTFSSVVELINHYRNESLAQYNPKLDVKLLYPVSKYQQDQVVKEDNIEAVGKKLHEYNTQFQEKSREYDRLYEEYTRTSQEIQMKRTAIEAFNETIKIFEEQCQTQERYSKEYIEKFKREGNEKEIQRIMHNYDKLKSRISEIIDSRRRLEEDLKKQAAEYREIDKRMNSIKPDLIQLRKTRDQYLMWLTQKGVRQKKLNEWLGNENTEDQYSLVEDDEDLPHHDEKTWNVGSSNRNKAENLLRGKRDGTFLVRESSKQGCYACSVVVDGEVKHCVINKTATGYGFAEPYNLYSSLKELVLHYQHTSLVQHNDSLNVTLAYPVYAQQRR

IC50, < 100 nM:
Cc1ccc(-c2ccc3ncc4nnn(C5CCN(C(=O)[C@H](C)O)CC5)c4c3n2)cn1 [Compound 2]
Cc1cc(-c2ccc3ncc4nnn(C5CCN(C(=O)[C@H](C)O)CC5)c4c3n2)cnc1N [Compound 3]
COc1ccc(-c2ccc3ncc4nnn(C5CCN(C(=O)[C@H](C)O)CC5)c4c3n2)cn1 [Compound 5]
C[C@H](O)C(=O)N1CCC(n2nnc3cnc4ccc(-c5cnc6[nH]ccc6c5)nc4c32)CC1 [Compound 8]
Nc1ncc(-c2ccc3ncc4nnn(C5CCN(C(=O)C6CC6)CC5)c4c3n2)cc1F [Compound 11]
Nc1ncc(-c2ccc3ncc4nnn(-c5cccc(Cl)c5)c4c3c2)cn1 [Compound 13]
CC(=O)N1CCC(n2nnc3cnc4ccc(-c5cnc(N)c(C(F)(F)F)c5)cc4c32)CC1 [Compound 15]
CC(C)(C#N)c1ccc(-n2nnc3cnc4ccc(-c5cnc(N)nc5)nc4c32)cc1 [Compound 18]
Nc1ncc(-c2ccc3ncc4nnn(C5CCN(CC6CC6)CC5)c4c3n2)cc1C(F)(F)F [Compound 20]
Cc1cc(-c2ccc3ncc4nnn(C5CCN(C(=O)[C@@H](C)O)CC5)c4c3n2)cnc1N [Compound 22]
C[C@H](O)C(=O)N1CCC(n2nnc3cnc4ccc(-c5cnc(N)c(C(F)(F)F)c5)cc4c32)CC1 [Compound 23]
C[C@@H](O)C(=O)N1CCC(n2nnc3cnc4ccc(-c5cnc(N)c(C(F)(F)F)c5)cc4c32)CC1 [Compound 24]
C=CC(=O)N1CCC(n2nnc3cnc4ccc(-c5cnc(N)c(C(F)(F)F)c5)nc4c32)CC1 [Compound 28]
C=CC(=O)N1CCC(n2nnc3cnc4ccc(-c5cnc(N)c(C)c5)nc4c32)CC1 [Compound 29]
CC(C)C(=O)N1CCC(n2nnc3cnc4ccc(-c5cnc(N)c(F)c5)nc4c32)CC1 [Compound 31]
CN1CCC(C(=O)N2CCC(n3nnc4cnc5ccc(-c6cnc(N)c(C(F)(F)F)c6)nc5c43)CC2)CC1 [Compound 36]
CCCCC(=O)N1CCC(n2nnc3cnc4ccc(-c5cnc(N)c(C(F)(F)F)c5)nc4c32)CC1 [Compound 37]
Nc1ncc(-c2ccc3ncc4nnn(C5CCN(C(=O)CC6CC6)CC5)c4c3n2)cc1C(F)(F)F [Compound 38]
Nc1ncc(-c2ccc3ncc4nnn(C5CCN(C(=O)C6(O)CC6)CC5)c4c3n2)cc1C(F)(F)F [Compound 39]
Nc1ncc(-c2ccc3ncc4nnn(C5CCN(C(=O)c6ccccn6)CC5)c4c3n2)cc1C(F)(F)F [Compound 40]
Nc1ncc(-c2ccc3ncc4nnn(C5CCN(C(=O)c6ccccc6)CC5)c4c3n2)cc1C(F)(F)F [Compound 41]
Nc1ncc(-c2ccc3ncc4nnn(C5CCN(Cc6ccccn6)CC5)c4c3n2)cc1C(F)(F)F [Compound 47]
Nc1ncc(-c2ccc3ncc4nnn(C5CCN(CC6CCOCC6)CC5)c4c3n2)cc1C(F)(F)F [Compound 48, 5-(1-(1-((tetrahydro-2H-pyran-4-yl)methyl)piperidin-4-yl)-1H-[1,2,3]triazolo[4,5-c][1,5]naphthyridin-8-yl)-3-(trifluoromethyl)pyridin-2-amine]
CC(C)(C#N)c1ccc(-c2nnc3cnc4ccc(-c5cnc(N)c(C(F)(F)F)c5)cc4n23)cn1 [Compound 54]
Cc1cc(-c2ccc3ncc4nnc(-c5ccc(C(C)(C)C#N)nc5)n4c3c2)cnc1N [Compound 57]
Nc1ncc(-c2ccc3ncc4nnc(-c5ccc(F)cn5)n4c3c2)cc1C(F)(F)F [Compound 59]
Nc1nc2ccc(-c3ccc4ncc5nnc(-c6ccc(F)cn6)n5c4c3)cc2s1 [Compound 60]
CC(C)(C#N)c1ccc(-c2nnc3cnc4ccc(-c5ccc6[nH]ncc6c5)cc4n23)cc1 [Compound 61]
N#Cc1cccc(-c2nnc3cnc4ccc(-c5cnc(N)c(C(F)(F)F)c5)cc4n23)c1 [Compound 62]
N#Cc1ccc(-c2nnc3cnc4ccc(-c5cnc(N)c(C(F)(F)F)c5)cc4n23)cc1 [Compound 64]
Cc1ccc(-c2nnc3cnc4ccc(-c5cnc(N)c(C(F)(F)F)c5)cc4n23)cn1 [Compound 65]
CC(C)(C#N)c1ccc(-c2nnc3cnc4ccc(-c5ccc6nc(N)oc6c5)cc4n23)cn1 [Compound 67]
CC(C)(C#N)C(=O)c1ccc(-c2nnc3cnc4ccc(-c5cnc(N)c(C(F)(F)F)c5)cc4n23)cc1 [Compound 68]
CC(C)(C#N)c1ccc(-c2nnc3cnc4ccc(-c5cnc6[nH]ccc6c5)cc4n23)cc1 [Compound 69]
Nc1ncc(-c2ccc3ncc4nnc(-c5ccc(F)cc5)n4c3c2)cc1C(F)(F)F [Compound 70]
CS(=O)(=O)c1ccc(-c2nnc3cnc4ccc(-c5cnc(N)c(C(F)(F)F)c5)cc4n23)cc1 [Compound 71]
N#Cc1ccc(-c2nnc3cnc4ccc(-c5ccc6nc(N)sc6c5)cc4n23)nc1 [Compound 73]
COc1ncc(-c2ccc3ncc4nnc(-c5ccc(C(C)(C)C#N)cc5)n4c3c2)cc1N [Compound 74]
COc1cc(-c2ccc3ncc4nnc(-c5ccc(C(C)(C)C#N)cc5)n4c3c2)cnc1OC [Compound 76]
CC(C)(C#N)c1ccc(-c2nnc3cnc4ccc(-c5cnc(N)c(Cl)c5)cc4n23)cc1 [Compound 77]
C[C@H](O)C(=O)N1CCC(c2nnc3cnc4ccc(-c5cnc(N)c(C(F)(F)F)c5)cc4n23)CC1 [Compound 79, (S)-1-(4-(8-(6-amino-5-(trifluoromethyl)pyridin-3-yl)-[1,2,4]triazolo[4,3-a]quinoxalin-1-yl)piperidin-1-yl)-2-hydroxypropan-1-one]
C[C@H](O)C(=O)N1CCC(c2nnc3cnc4ccc(-c5ccc6nc(N)sc6c5)cc4n23)CC1 [Compound 80]
C[C@@H](O)C(=O)N1CCC(c2nnc3cnc4ccc(-c5ccc6nc(N)sc6c5)cc4n23)CC1 [Compound 81]
CC(=O)N1CCC(Cc2nnc3cnc4ccc(-c5cnc(N)c(C(F)(F)F)c5)cc4n23)CC1 [Compound 82]
CC(=O)N1CCC(Cc2nnc3cnc4ccc(-c5ccc6nc(N)sc6c5)cc4n23)CC1 [Compound 83]
CC(=O)N1CCCC(c2nnc3cnc4ccc(-c5ccc6nc(N)sc6c5)cc4n23)C1 (stereo not shown) [Compound 84]
Nc1ncc(-c2ccc3ncc4nnc(C5CCC(O)CC5)n4c3c2)cc1C(F)(F)F (stereo not shown) [Compound 85]
Nc1ncc(-c2ccc3ncc4nnc(CN5CCCC5)n4c3c2)cc1C(F)(F)F [Compound 87]
CC(C)(C#N)c1ccc(-n2cnc3cnc4ccc(-c5cnc(N)c(C(F)(F)F)c5)nc4c32)cn1 [Compound 89]
Cc1cc(-c2ccc3ncc4ncn(-c5ccc(C(C)(C)C#N)nc5)c4c3n2)cnc1N [Compound 90]
COc1cc(-c2ccc3ncc4ncn(-c5ccc(C(C)(C)C#N)nc5)c4c3n2)cnc1OC [Compound 92]
CC(C)(C#N)c1ccc(-n2cnc3cnc4ccc(-c5cnc(N)nc5)nc4c32)cn1 [Compound 94]

Source: patent US9181264B2, “Fused heteroaryls and their uses” (Hutchison MediPharma Limited, priority 2011, dated 2015)
